Assay results published in DBAASP.
In brackets after ≈: the same amount, converted by molar mass. Blank lines part the entries; values can stand above or below the compound they belong to.

Columns and labels:
Assay in all cases: ≥ marks a high value that may be exact or a test limit, other limits are often not marked, values filed in µg/mL are converted to µM
[1] = tested on: Pseudomonas aeruginosa ATCC 9027
[2] = tested on: Klebsiella pneumoniae ATCC 700603
[3] = tested on: Escherichia coli ATCC 25922
Acinetobacter baumannii = tested on: Acinetobacter baumannii
[4] = tested on: Staphylococcus aureus ATCC 25923
Escherichia coli = tested on: Escherichia coli
Bacillus subtilis = tested on: Bacillus subtilis
[5] = tested on: Candida albicans ATCC 2002
[6] = tested on: Acinetobacter baumannii ATCC 19606
[7] = tested on: Staphylococcus aureus ATCC 6538
[8] = tested on: Salmonella enterica subsp. enterica serovar Typhimurium C77-31
[9] = tested on: Staphylococcus epidermidis ATCC 12228
Escherichia coli UB1005 = tested on: Escherichia coli UB1005
[10] = tested on: Staphylococcus aureus ATCC 29213
Pseudomonas aeruginosa = tested on: Pseudomonas aeruginosa
Staphylococcus aureus = tested on: Staphylococcus aureus
[11] = tested on: Enterococcus faecalis ATCC 29212

- MIC [1]: > 25 µM
- MIC [2]: > 25 µM
- MIC [3]: > 25 µM
- MIC (Acinetobacter baumannii): 25 µM (≈ 43 µg/mL)
- MIC [4]: > 25 µM
Compound: CSCC[C@H](NC(=O)[C@H](CC(C)C)NC(=O)[C@H](CCCCN)NC(=O)CNC(=O)[C@H](C)NC(=O)[C@H](C)NC(=O)[C@H](CCCN=C(N)N)NC(=O)[C@H](Cc1ccccc1)NC(=O)[C@H](CC(C)C)NC(=O)[C@@H](NC(=O)[C@H](Cc1c[nH]c2ccccc12)NC(=O)[C@@H](NC(=O)[C@@H](N)CCCCN)C(C)C)[C@@H](C)O)C(=O)N[C@@H](C)C(=O)N[C@@H](CCCCN)C(N)=O [KVWTLFRAAGKLMAK]

- MIC (Escherichia coli): 100 µM (≈ 163 µg/mL)
- MIC (Bacillus subtilis): ≥ 87.5 µM
Compound: CC[C@H](C)[C@H](N)C(=O)N[C@@H](CC(N)=O)C(=O)N[C@@H](Cc1c[nH]c2ccccc12)C(=O)N[C@@H](CO)C(=O)N[C@@H](CO)C(=O)N[C@H](C(=O)N[C@@H](Cc1ccccc1)C(=O)N[C@@H](CCC(=O)O)C(=O)N[C@@H](CO)C(=O)N[C@H](C(=O)N[C@@H](CCCCN)C(=O)N[C@@H](CC(N)=O)C(=O)N[C@@H](CC(C)C)C(=O)N[C@H](C(N)=O)C(C)C)C(C)C)[C@@H](C)CC [INWSSIFESVKNLV]

- MIC [1]: 64 µM (≈ 113 µg/mL)
- MIC [2]: 64 µM (≈ 113 µg/mL)
- MIC [3]: 64 µM (≈ 113 µg/mL)
- MIC (Acinetobacter baumannii): ≥ 32 µM
- MIC [4]: 64 µM (≈ 113 µg/mL)
Compound: CC[C@H](C)[C@H](N)C(=O)N[C@H](C(=O)N[C@@H](CCCCN)C(=O)N[C@@H](Cc1c[nH]c2ccccc12)C(=O)N[C@@H](CC(C)C)C(=O)N[C@@H](CC(C)C)C(=O)N[C@@H](CC(N)=O)C(=O)N[C@@H](C)C(=O)N[C@H](C(=O)N[C@@H](CCCCN)C(=O)N[C@@H](CCCCN)C(=O)NCC(=O)N[C@@H](Cc1ccccc1)C(=O)N[C@@H](CCCCN)C(=O)N[C@@H](CC(C)C)C(=O)O)[C@@H](C)CC)[C@@H](C)O [ITKWLLNAIKKGFKL]

- MIC (Bacillus subtilis): 1.34 µM (≈ 3.52 µg/mL)
- MIC [3]: 10.7 µM (≈ 28.1 µg/mL)
- MIC [5]: 0.335 µM (≈ 0.879 µg/mL)
- MIC [4]: 0.447 µM (≈ 1.17 µg/mL)
Compound: CC[C@H](C)[C@H](NC(=O)[C@H](C)NC(=O)[C@H](CCCN=C(N)N)NC(=O)[C@H](Cc1ccc(O)cc1)NC(=O)[C@H](CC(C)C)NC(=O)[C@H](CC(N)=O)NC(=O)[C@H](Cc1ccc(O)cc1)NC(=O)CNC(=O)[C@H](C)NC(=O)[C@@H](NC(=O)[C@@H](NC(=O)[C@@H](NC(=O)[C@H](CCCN=C(N)N)NC(=O)[C@@H](NC(=O)[C@@H](NC(=O)[C@@H](NC(=O)[C@@H]1CCCN1C(=O)[C@H](Cc1c[nH]c2ccccc12)NC(=O)[C@@H](N)Cc1ccccc1)C(C)C)C(C)C)[C@@H](C)CC)[C@@H](C)O)C(C)C)C(C)C)C(=O)N[C@@H](CCCCN)C(=O)N[C@@H](CCCCN)C(=O)N[C@@H](CCCCN)C(=O)O [FWPVVIRTVVAGYNLYRAIKKK]

- MIC [6]: 3.21 µM (≈ 10 µg/mL)
- MIC (Acinetobacter baumannii): 6.42 µM (≈ 20 µg/mL)
Compound: CC[C@H](C)[C@H](NC(=O)[C@H](CCCN=C(N)N)NC(=O)[C@@H](NC(=O)[C@@H](NC(=O)[C@@H]1CCCN1C(=O)[C@@H](NC(=O)[C@@H](NC(=O)[C@@H](NC(=O)[C@@H]1CCCN1C(=O)CNC(=O)[C@H](Cc1ccc(O)cc1)NC(=O)[C@H](CCCCN)NC(=O)[C@H](CCCCN)NC(=O)[C@H](Cc1c[nH]c2ccccc12)NC(=O)[C@H](C)NC(=O)[C@H](CCCN=C(N)N)NC(=O)[C@H](CC(C)C)NC(=O)[C@@H](NC(=O)[C@H](CCCCN)NC(=O)[C@H](CCCN=C(N)N)NC(=O)CNC(=O)[C@H](CC(C)C)NC(=O)[C@H](CCCCN)NC(=O)[C@H](CCCN=C(N)N)NC(=O)[C@H](CC(C)C)NC(=O)CNC(=O)CN)[C@@H](C)CC)[C@@H](C)CC)[C@@H](C)CC)C(C)C)[C@@H](C)CC)[C@@H](C)CC)C(=O)O [GGLRKLGRKILRAWKKYGPIIVPIIRI]

Compound: CC(C)C[C@H](NC(=O)[C@H](CCCCN)NC(=O)[C@H](CCCCN)NC(=O)[C@H](C)NC(=O)[C@H](CC(C)C)NC(=O)[C@H](CCCCN)NC(=O)[C@H](C)NC(=O)[C@H](CC(C)C)NC(=O)[C@H](CCCCN)NC(=O)[C@H](CCCCN)NC(=O)[C@H](C)NC(=O)[C@@H](N)Cc1ccccc1)C(N)=O [FAKKLAKLAKKL]
- MIC [1]: 18.4 µM (≈ 25 µg/mL)
- MIC [7]: 73.6 µM (≈ 99.9 µg/mL)

- MIC (Escherichia coli): 70 µM (≈ 114 µg/mL)
- MIC (Bacillus subtilis): ≥ 35 µM
Compound: CC[C@H](C)[C@H](N)C(=O)N[C@@H](CC(N)=O)C(=O)N[C@@H](Cc1c[nH]c2ccccc12)C(=O)N[C@@H](CC(C)C)C(=O)N[C@@H](CCCCN)C(=O)N[C@@H](CC(C)C)C(=O)NCC(=O)N[C@@H](CCCCN)C(=O)N[C@@H](CCCCN)C(=O)N[C@@H](CCSC)C(=O)N[C@@H](CCSC)C(=O)N[C@@H](CO)C(=O)N[C@@H](C)C(=O)N[C@H](C(N)=O)[C@@H](C)CC [INWLKLGKKMMSAI]

Compound: CC[C@H](C)[C@H](NC(=O)CNC(=O)[C@H](CC(C)C)NC(=O)[C@H](CCCCN)NC(=O)[C@H](C)NC(=O)[C@H](CC(C)C)NC(=O)[C@H](C)NC(=O)[C@@H](NC(=O)[C@H](CCCCN)NC(=O)[C@H](C)NC(=O)[C@@H](NC(=O)[C@@H](N)CCCCN)[C@@H](C)CC)C(C)C)C(=O)NCC(=O)N[C@@H](C)C(=O)N[C@H](C(=O)N[C@@H](CC(C)C)C(=O)N[C@@H](CCCCN)C(=O)N[C@H](C(=O)N[C@@H](CC(C)C)C(=O)N[C@H](C(=O)N[C@H](C(=O)NCC(=O)N[C@@H](CC(C)C)C(N)=O)[C@@H](C)O)[C@@H](C)O)C(C)C)C(C)C [KIAKVALAKLGIGAVLKVLTTGL]
- MIC [1]: 87.8 µM (≈ 200 µg/mL)
- MIC [7]: 87.8 µM (≈ 200 µg/mL)

- MIC [8]: 4 µM (≈ 11.2 µg/mL)
- MIC [9]: 2 µM (≈ 5.61 µg/mL)
- MIC (Escherichia coli UB1005): 4 µM (≈ 11.2 µg/mL)
- MIC [3]: 2 µM (≈ 5.61 µg/mL)
- MIC [4]: 2 µM (≈ 5.61 µg/mL)
- MIC [10]: 2 µM (≈ 5.61 µg/mL)
Compound: CC[C@H](C)[C@H](NC(=O)[C@H](Cc1c[nH]c2ccccc12)NC(=O)[C@H](CCCCN)NC(=O)[C@H](CC(C)C)NC(=O)[C@@H](NC(=O)[C@H](CCCCN)NC(=O)CNC(=O)[C@@H](NC(=O)[C@@H](NC(=O)[C@H](CCCCN)NC(=O)[C@H](CC(C)C)NC(=O)[C@@H](NC(=O)[C@@H](NC(=O)[C@H](CCCN=C(N)N)NC(=O)[C@@H](NC(=O)[C@@H](NC(=O)[C@H](CCCCN)NC(=O)[C@H](CCCN=C(N)N)NC(=O)[C@H](CC(C)C)NC(=O)[C@@H](NC(=O)[C@H](CCCN=C(N)N)NC(=O)[C@H](Cc1ccccc1)NC(=O)[C@@H](NC(=O)CN)C(C)C)C(C)C)C(C)C)[C@@H](C)O)C(C)C)C(C)C)C(C)C)[C@@H](C)CC)C(C)C)C(N)=O [GVFRVLRKVTRVVLKVIGKVLKWI]

Compound: CC(C)C[C@H](NC(=O)[C@H](CCCCN)NC(=O)[C@H](CCCCN)NC(=O)[C@H](C)NC(=O)[C@H](CC(C)C)NC(=O)[C@H](CCCCN)NC(=O)[C@H](C)NC(=O)[C@H](CC(C)C)NC(=O)[C@H](CC(C)C)NC(=O)[C@H](CCCCN)NC(=O)[C@H](C)NC(=O)[C@@H](N)Cc1ccccc1)C(N)=O [FAKLLAKLAKKL]
- MIC [1]: 149 µM (≈ 200 µg/mL)
- MIC [7]: 7.44 µM (≈ 9.99 µg/mL)

Compound: CC(C)C[C@H](NC(=O)[C@H](C)NC(=O)[C@H](CCCCN)NC(=O)[C@H](CCCCN)NC(=O)[C@H](Cc1ccccc1)NC(=O)[C@H](C)NC(=O)[C@H](CCCCN)NC(=O)[C@H](C)NC(=O)[C@H](CC(C)C)NC(=O)[C@H](CC(C)C)NC(=O)[C@H](CCCCN)NC(=O)[C@H](C)NC(=O)[C@@H](N)Cc1ccccc1)C(N)=O [FAKLLAKAFKKAL]
- MIC [1]: 10.4 µM (≈ 15 µg/mL)
- MIC [7]: 34.5 µM (≈ 50 µg/mL)

- MIC (Escherichia coli): 2 µM (≈ 3.62 µg/mL)
- MIC (Pseudomonas aeruginosa): 4 µM (≈ 7.24 µg/mL)
- MIC [8]: 4 µM (≈ 7.24 µg/mL)
- MIC [9]: 2 µM (≈ 3.62 µg/mL)
- MIC (Escherichia coli UB1005): 2 µM (≈ 3.62 µg/mL)
- MIC [3]: 4 µM (≈ 7.24 µg/mL)
- MIC (Acinetobacter baumannii): 2 µM (≈ 3.62 µg/mL)
- MIC [4]: 2 µM (≈ 3.62 µg/mL)
- MIC (Staphylococcus aureus): 1 µM (≈ 1.81 µg/mL)
- MIC [10]: 1 µM (≈ 1.81 µg/mL)
Compound: CC(C)[C@H](NC(=O)[C@H](CCCN=C(N)N)NC(=O)[C@H](Cc1c[nH]c2ccccc12)NC(=O)[C@H](CCCN=C(N)N)NC(=O)[C@@H](NC(=O)[C@H](CCCN=C(N)N)NC(=O)[C@H](Cc1c[nH]c2ccccc12)NC(=O)[C@H](CCCN=C(N)N)NC(=O)[C@@H](NC(=O)[C@H](CCCN=C(N)N)NC(=O)[C@@H](N)Cc1c[nH]c2ccccc12)C(C)C)C(C)C)C(=O)N[C@@H](CCCN=C(N)N)C(N)=O [WRVRWRVRWRVR]

- MIC [11]: > 128 µM
- MIC [8]: ≥ 128 µM
- MIC [9]: > 128 µM
- MIC (Escherichia coli UB1005): ≥ 128 µM
- MIC [10]: > 128 µM
Compound: CC[C@H](C)[C@H](NC(=O)[C@H](CCCCN)NC(=O)[C@H](CCCCN)NC(=O)[C@H](CC(C)C)NC(=O)[C@H](CCCN=C(N)N)NC(=O)[C@@H]1CSSC[C@H](NC(=O)[C@H](CCCN=C(N)N)NC(=O)[C@H](CC(C)C)NC(=O)[C@H](CCCN=C(N)N)NC(=O)[C@H](CCCN=C(N)N)NC(=O)[C@H](Cc2ccccc2)NC(=O)[C@@H](N)CCCN=C(N)N)C(=O)N[C@@H](CCCCN)C(=O)N[C@@H]([C@@H](C)O)C(=O)N[C@@H](CCCN=C(N)N)C(=O)N1)C(N)=O [RFRRLRCKTRCRLKKI]

Compound: CC(C)C[C@H](NC(=O)[C@H](C)NC(=O)[C@H](CCCCN)NC(=O)[C@H](C)NC(=O)[C@H](CC(C)C)NC(=O)[C@H](CCCCN)NC(=O)[C@H](CCCCN)NC(=O)[C@H](C)NC(=O)[C@H](CC(C)C)NC(=O)[C@H](CCCCN)NC(=O)[C@H](CCCCN)NC(=O)[C@H](C)NC(=O)[C@@H](N)Cc1ccccc1)C(N)=O [FAKKLAKKLAKAL]
- MIC [1]: 3.5 µM (≈ 5 µg/mL)
- MIC [7]: 10.5 µM (≈ 15 µg/mL)
